Test results reported in PMC10367051, “Comprehensive Mechanistic View of the Hydrolysis of Oxadiazole-Based Inhibitors by Histone Deacetylase 6 (HDAC6)” (ACS Chemical Biology, 2023).

Key:
HDAC6 = target: T1, HDAC6 (Homo sapiens, UniProt Q9UBN7); assay: Fluorometric HDAC inhibition assay, HDAC6; type: biochemical; conditions: purified human protein; Ac-Gly-Ala-[Lys-Ac]-AMC substrate 10 μM; 15 min preincubation
T1 construct: TwinStrep-FLAG-HALO (N, cleaved yes); made in house; host or cells: HEK293/T17
T1 sequence (Q9UBN7 1-1215): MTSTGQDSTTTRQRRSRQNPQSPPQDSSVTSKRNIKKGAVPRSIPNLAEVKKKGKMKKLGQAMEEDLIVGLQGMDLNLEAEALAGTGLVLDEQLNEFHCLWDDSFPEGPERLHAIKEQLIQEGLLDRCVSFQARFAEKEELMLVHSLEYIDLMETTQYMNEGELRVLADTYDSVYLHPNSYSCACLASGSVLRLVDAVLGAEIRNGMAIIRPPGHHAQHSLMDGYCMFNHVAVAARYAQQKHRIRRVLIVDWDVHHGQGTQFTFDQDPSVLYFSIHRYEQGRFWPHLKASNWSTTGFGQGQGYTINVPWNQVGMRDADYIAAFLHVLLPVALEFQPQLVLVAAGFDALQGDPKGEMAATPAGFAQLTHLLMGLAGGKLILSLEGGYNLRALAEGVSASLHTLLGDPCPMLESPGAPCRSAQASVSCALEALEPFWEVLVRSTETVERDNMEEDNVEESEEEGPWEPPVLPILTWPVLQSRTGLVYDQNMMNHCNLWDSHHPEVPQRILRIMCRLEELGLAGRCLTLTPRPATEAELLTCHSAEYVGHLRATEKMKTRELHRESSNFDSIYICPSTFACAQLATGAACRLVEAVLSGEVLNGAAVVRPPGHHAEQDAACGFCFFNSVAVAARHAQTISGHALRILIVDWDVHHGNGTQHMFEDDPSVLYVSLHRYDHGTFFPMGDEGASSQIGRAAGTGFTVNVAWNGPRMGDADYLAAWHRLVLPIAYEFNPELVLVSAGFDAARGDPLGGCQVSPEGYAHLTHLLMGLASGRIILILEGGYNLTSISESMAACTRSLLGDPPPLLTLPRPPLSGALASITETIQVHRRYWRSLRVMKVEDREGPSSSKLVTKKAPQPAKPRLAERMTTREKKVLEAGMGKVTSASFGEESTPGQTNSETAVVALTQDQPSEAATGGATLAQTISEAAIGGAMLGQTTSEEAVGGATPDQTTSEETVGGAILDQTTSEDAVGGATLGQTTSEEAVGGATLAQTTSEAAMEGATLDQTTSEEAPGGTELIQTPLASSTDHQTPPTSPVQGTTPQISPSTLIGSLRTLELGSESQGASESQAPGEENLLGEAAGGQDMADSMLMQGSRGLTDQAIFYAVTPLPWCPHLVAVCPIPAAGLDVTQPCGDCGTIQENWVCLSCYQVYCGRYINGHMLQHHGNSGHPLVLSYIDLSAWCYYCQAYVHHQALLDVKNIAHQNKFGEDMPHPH
Protocol: Large-scale expression of recombinant human HDACs was carried out as described previously.[32],[37] Briefly, HEK293/T17 cells were transiently transfected with expression pMM222 plasmids comprising N-terminally tagged (TwinStrep-FLAG-HALO tag; Figure S1) HDAC genes using linear poly(ethyleneimine) (PEI, Polysciences Inc.). Cells were harvested three days post-transfection, and cell pellets were resuspended in the lysis buffer (100 mM Tris-HCl, 10 mM NaCl, 5 mM KCl, 2 mM MgCl2, and 10% glycerol at pH 8.0). Cells were disrupted by sonication, cell lysates were cleared by centrifugation, and soluble fusion proteins were first purified by Streptactin affinity chromatography (IBA). For all HDACs but HDACs 1, 10, and 11, the N-terminal tag was cleaved off overnight by the addition of TEV protease (10:1 HDAC/TEV ratio). Size-exclusion chromatography on a Superose 6 column (GE Healthcare Bio-Sciences; running buffer 30 mM HEPES, 140 mM NaCl, 10 mM KCl, 3% glycerol, and 0.25 mM TCEP) was used as the final purification step for all HDAC constructs.
(§1) Optimized fluorometric assays were used to determine inhibition constants of studied compounds against individual HDAC isoforms as described previously.[32] Briefly, reactions were performed in the activity buffer comprising 50 mM HEPES, 140 mM NaCl, and 10 mM KCl at pH 7.4 supplemented with 1 mg mL^–1 bovine serum albumin (BSA), 1 mM tris(2-carboxyethyl)phosphine (TCEP), 10 μM substrates, and optimized concentrations of HDACs. The Ac-Gly-Ala-[Lys-Ac]-7-amino-methylcoumarylamide (AMC) substrate was used to profile HDACs 1, 2, 3, and 6; Boc-[Lys-TFA]-7-amino-methylcoumarylamide was used for HDACs 4, 5, 7, 8, and 9 (both substrates: Bachem); fluorescein-labeled N8-acetylspermidine was used for HDAC10;[32] and an internally quenched TNFα-derived peptide derivative was used for HDAC11.[39] Deacetylation reactions were monitored either by high-performance liquid chromatography (HPLC) (HDAC10) or by quantification of released AMC (λex/λem = 365/440 nm) using a CLARIOstar plate reader (BMG Labtech GmbH).

zHDAC6 (Y745F) = target: T2, zHDAC6 (Y745F) (Danio rerio, UniProt F8W4B7, Y745F); assay: Inhibition assay, zebrafish HDAC6 catalytic DD2 domain, Y745F mutant; type: biochemical
T2 construct: Danio rerio HDAC6 (amino acids 440–798; zHDAC6); His (N, cleaved yes); MBP (N, cleaved yes); made in house; host or cells: RIPL Escherichia coli
T2 sequence (F8W4B7 440-798 Y745F): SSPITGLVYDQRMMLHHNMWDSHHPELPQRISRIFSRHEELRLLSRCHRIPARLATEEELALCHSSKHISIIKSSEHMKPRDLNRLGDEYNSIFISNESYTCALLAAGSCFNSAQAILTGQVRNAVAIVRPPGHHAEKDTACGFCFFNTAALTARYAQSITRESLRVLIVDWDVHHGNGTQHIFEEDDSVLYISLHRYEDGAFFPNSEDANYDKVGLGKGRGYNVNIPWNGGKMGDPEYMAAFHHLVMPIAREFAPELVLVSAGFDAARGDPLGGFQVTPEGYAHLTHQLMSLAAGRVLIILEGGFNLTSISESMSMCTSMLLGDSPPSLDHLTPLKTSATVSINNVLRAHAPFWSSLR
Protocol: The second catalytic domain of Danio rerio HDAC6 (amino acids 440–798; zHDAC6) was expressed in RIPL Escherichia coli as described previously using the pEC566-zHDAC6 expression vector.[16],[38] Briefly, bacteria were incubated at 37 °C with shaking (250 rpm) until the optical density reached an OD600 = 0.5. Then, the culture was cooled to 18 °C for 1 h, and recombinant protein expression was induced by the addition of 75 μM isopropyl β-D-1-thiogalactopyranoside together with 200 μM ZnSO4. The culture was grown at 18 °C for an additional 18 h and harvested by centrifugation at 5500g for 15 min. The cell pellet was resuspended in the lysis buffer (50 mM phosphate, 300 mM NaCl, 10% glycerol, and 20 mM imidazole at pH 8; 5 mL g^–1 bacterial pellet) and lysed by three passages through EmulsiFlex (Avestin). Cell lysates were centrifuged (15,000g at 4 °C for 20 min), and the fusion protein in the supernatant was purified via Ni-NTA chromatography. Fractions containing the His-MBP-HDAC6 fusion were concentrated to 2 mg mL^–1 and cleaved overnight by the addition of TEV protease (zHDAC6/TEV 1:20 ratio). The cleaved tag and the TEV protease were sequentially removed using amylose (New England Biolabs) and HisTrap columns (Cytiva), and zHDAC6 was further purified by size-exclusion chromatography on a HiLoad Superdex 75 pg column (GE Healthcare Bio-Sciences). Fractions containing zHDAC6 were pooled, concentrated to 10 mg mL^–1, flash-frozen in liquid nitrogen, and stored at −80 °C. The purity of protein preparations was monitored by SDS-PAGE (Figure S2).
The zHDAC6 mutants (Y745F and H574A) were constructed using the Quick-change site-directed mutagenesis protocol with the pEC566-zHDAC6 expression plasmid as a template. Both mutants were expressed and purified as described above for wild-type zHDAC6 (Figure S2).
as §1

Structure (SMILES): Cc1nnc(-c2ccc(CN(c3cccc(Cl)c3)S(C)(=O)=O)nc2)o1 [compound 10]
- IC50 (HDAC6): > 100 µM

Structure (SMILES): CS(=O)(=O)N(Cc1ccc(-c2nnc(CF)o2)cn1)c1cccc(Cl)c1 [compound 9]
- IC50 (HDAC6): 0.085 ± 0.0028 µM
- IC50 (zHDAC6 (Y745F)): > 20 µM
